Source: doi:10.1101/153262v1 (biorxiv, 2017)

Biological target: T1, EiCsm6 (Enterococcus italicus, UniProt E6LHV2)
T1 sequence (E6LHV2 1-430): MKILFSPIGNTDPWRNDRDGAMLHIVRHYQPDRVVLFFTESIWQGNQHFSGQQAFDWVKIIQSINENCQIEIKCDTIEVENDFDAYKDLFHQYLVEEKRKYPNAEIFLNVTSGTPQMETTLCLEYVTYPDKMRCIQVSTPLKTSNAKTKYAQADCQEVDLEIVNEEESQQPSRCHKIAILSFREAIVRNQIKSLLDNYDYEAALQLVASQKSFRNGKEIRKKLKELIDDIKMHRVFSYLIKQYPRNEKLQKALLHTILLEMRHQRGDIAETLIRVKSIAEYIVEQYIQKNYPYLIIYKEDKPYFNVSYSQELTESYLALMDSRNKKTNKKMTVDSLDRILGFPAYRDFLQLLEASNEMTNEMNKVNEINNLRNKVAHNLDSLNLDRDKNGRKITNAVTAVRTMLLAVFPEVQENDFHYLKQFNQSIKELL
Assay: fluorogenic RNase Alert cleavage, initial velocities, log
Assay type: biochemical
Conditions: activator; allosteric, CARF domain; 20 mM HEPES pH 7.5, 50 mM KCl

EC50: ~60 nM
Compound: Nc1ncnc2c1ncn2[C@@H]1O[C@H](CO)[C@@H](OP(=O)(O)OC[C@H]2O[C@@H](n3cnc4c(N)ncnc43)[C@H](O)[C@@H]2OP(=O)(O)OC[C@H]2O[C@@H](n3cnc4c(N)ncnc43)[C@H](O)[C@@H]2OP(=O)(O)OC[C@H]2O[C@@H](n3cnc4c(N)ncnc43)[C@H](O)[C@@H]2OP(=O)(O)OC[C@H]2O[C@@H](n3cnc4c(N)ncnc43)[C@H](O)[C@@H]2OP(=O)(O)OC[C@H]2O[C@@H](n3cnc4c(N)ncnc43)[C@@H]3OP(=O)(O)O[C@@H]32)[C@H]1O [A6>P, 2',3'-cyclic phosphate-terminated hexaadenylate]
